Data set [1] can be described thus: In vitro cytotoxicity assay (MTT cell viability) in HepG2 cells. In kind it is cell-based, human. The following applies: human. In a few lines:
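Viability measured by MTT conversion, absorbance at 492 nm, as percent of vehicle-treated wells. Compounds spanned 30 μM to 1.0 nM in half-log steps over a 7-day exposure of parental HepG2 cells; CC50 derived by 4-parameter curve fit.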

Data set [2] has as its system HBV replication in HepAD38 cells. In words: Anti-HBV replication assay in HepAD38 cells (QPCR of extracellular HBV DNA). The format is cell-based, HBV (genotype D, serotype ayw). The following applies: Hepatitis B virus, 168 h, 7 days incubation, extracellular HBV DNA by QPCR, read-out: Anti-HBV EC50. In a few lines:
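Steps: seed HepAD38 overnight without tetracycline; refresh medium and add 1 log10 serial dilutions ([…]); incubate 7 days at 37 °C; quantify supernatant HBV DNA by QPCR; derive EC50 from a 4-parameter dose-response fit.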

As to `Cc1c(C(=O)Nc2ccnc(F)c2)c(C)n(C)c1C(=O)C(=O)NC(C)(C)CO` [Example 133, N-(2-fluoropyridin-4-yl)-5-(2-((1-hydroxy-2-methylpropan-2-yl)amino)-2-oxoacetyl)-1,2,4-trimethyl-1H-pyrrole-3-carboxamide], in data set [1], the CC50 at 7 days was greater than 30 µM. Besides, the EC50 in data set [2] fell in the range of 0.05 to 0.499 µM.
The matching figures for `Cc1c(C(=O)Nc2ccc(F)c(Cl)c2)c2n(c1C(=O)C(=O)NCC(C)(C)O)CCCC2` [Example 467, N-(3-chloro-4-fluorophenyl)-3-(2-((2-hydroxy-2-methylpropyl)amino)-2-oxoacetyl)-2-methyl-5,6,7,8-tetrahydroindolizine-1-carboxamide]: greater than 30 µM and 0.5 to 1 µM.
In data set [1], `Cc1c(C(=O)Nc2ccc(F)cc2)c(C)n(C)c1C(=O)C(=O)N[C@H]1CC[C@@H](O)CC1` [Example 724] gave a CC50 at 7 days greater than 30 µM. Also, in data set [2], the EC50 is less than 0.05 µM.
The corresponding values for `Cc1cc(NC(=O)c2c(C)c(C(=O)C(=O)N3CCC(O)CC3)n(C)c2C)ccc1F` [Example 47, N-(4-fluoro-3-methylphenyl)-5-(2-(4-hydroxypiperidin-1-yl)-2-oxoacetyl)-1,2,4-trimethyl-1H-pyrrole-3-carboxamide] are 0.5 to 4.99 µM and 0.05 to 0.499 µM.
The matching figures for `Cc1cc(NC(=O)c2c(C)c(C(=O)C(=O)N[C@@H]3CC[C@@H](O)C3)n(C)c2C)cnc1F` [Example 176, N-(6-fluoro-5-methylpyridin-3-yl)-5-(2-(((1R,3R)-3-hydroxycyclopentyl)amino)-2-oxoacetyl)-1,2,4-trimethyl-1H-pyrrole-3-carboxamide]: greater than 30 µM and 0.05 to 0.499 µM.
Turning to `Cc1cc(NC(=O)c2c(C)c(C(=O)C(=O)NC3(C)CCN(C(=O)c4ccnn4C)CC3)n(C)c2C)ccc1F` [Example 692, N-(4-fluoro-3-methylphenyl)-1,2,4-trimethyl-5-(2-((4-methyl-1-(1-methyl-1H-pyrazole-5-carbonyl)piperidin-4-yl)amino)-2-oxoacetyl)-1H-pyrrole-3-carboxamide], the CC50 at 7 days in data set [1] is greater than 30 µM. For the same compound, the EC50 in data set [2] was less than 0.05 µM.
On to `Cc1c(C(=O)Nc2ccc(F)c(Cl)c2)c2n(c1C(=O)C(=O)NCc1cnc(N)s1)CCCC2` [Example 448, 3-(2-(((2-aminothiazol-5-yl)methyl)amino)-2-oxoacetyl)-N-(3-chloro-4-fluorophenyl)-2-methyl-5,6,7,8-tetrahydroindolizine-1-carboxamide], for which the CC50 at 7 days in data set [1] lay in the range of 5 to 30 µM. Besides, the EC50 in data set [2] was less than 0.05 µM.
Compound `Cc1c(C(=O)Nc2ccc(F)c(F)c2)c(C)n(C)c1C(=O)C(=O)NC(C)(C)CO` [Example 148, N-(3,4-difluorophenyl)-5-(2-((1-hydroxy-2-methylpropan-2-yl)amino)-2-oxoacetyl)-1,2,4-trimethyl-1H-pyrrole-3-carboxamide] showed a 50% cytotoxic concentration (CC50) at 7 days in data set [1] greater than 30 µM. Also, the EC50 in data set [2] was less than 0.05 µM.
As for `Cc1cc(NC(=O)c2cc(C(=O)C(=O)NC(C)(C)C)n3c2COCC3)ccc1F` [Example 583, 6-(2-(tert-butylamino)-2-oxoacetyl)-N-(4-fluoro-3-methylphenyl)-3,4-dihydro-1H-pyrrolo[2,1-c][1,4]oxazine-8-carboxamide], the CC50 at 7 days in data set [1] was greater than 30 µM. The 50% effective concentration (EC50) in data set [2] is less than 0.05 µM.
The corresponding values for `Cc1cc(NC(=O)c2c(C)c(C(=O)C(=O)N3CCC(F)(F)C3)n(C)c2C)cnc1F` [Example 192, 5-(2-(3,3-difluoropyrrolidin-1-yl)-2-oxoacetyl)-N-(6-fluoro-5-methylpyridin-3-yl)-1,2,4-trimethyl-1H-pyrrole-3-carboxamide] are greater than 30 µM and 0.5 to 1 µM.
Take `Cc1c(C(=O)Nc2ccc(F)c(F)c2)c2n(c1C(=O)C(=O)Nc1ccc(B(O)O)cc1)CCCC2` [Example 738, (4-(2-(1-((3,4-difluorophenyl)carbamoyl)-2-methyl-5,6,7,8-tetrahdyroindolizin-3-yl)-2-oxoacetamido)phenyl)boronic acid]: the CC50 at 7 days in data set [1] is greater than 30 µM. Further, the EC50 in data set [2] was in the range of 0.05 to 0.499 µM.
As for `Cc1cc(NC(=O)c2c(C)c(C(=O)C(=O)NC3(C(N)=O)CC3)n(C)c2C)ccc1F` [Example 37, 5-(2-((1-carbamoylcyclopropyl)amino)-2-oxoacetyl)-N-(4-fluoro-3-methylphenyl)-1,2,4-trimethyl-1H-pyrrole-3-carboxamide], in data set [1], the CC50 at 7 days was greater than 30 µM. Besides, the EC50 in data set [2] was less than 0.05 µM.
The matching figures for `Cc1cc(NC(=O)c2c(C)c(C(=O)C(=O)NC(C)(C)C)n(C)c2C)ccc1F` [Example 2, 5-(2-(tert-butylamino)-2-oxoacetyl)-N-(4-fluoro-3-methylphenyl)-1,2,4-trimethyl-1H-pyrrole-3-carboxamide]: greater than 30 µM and less than 0.05 µM.
The matching figures for `CC(C)(C)NC(=O)C(=O)c1cc(C(=O)Nc2ccc(F)c(Cl)c2)c2n1CCCC2` [Example 399, 3-(2-(tert-butylamino)-2-oxoacetyl)-N-(3-chloro-4-fluorophenyl)-5,6,7,8-tetrahydroindolizine-1-carboxamide]: greater than 30 µM and 0.05 to 0.499 µM.
In turn, `Cc1c(C(=O)Nc2ccc(F)c(F)c2)c(C)n(C)c1C(=O)C(=O)NC1(c2nnn[nH]2)CCCC1` [Example 698, 5-(2-((1-(1H-tetrazol-5-yl)cyclopentyl)amino)-2-oxoacetyl)-N-(3,4-difluorophenyl)-1,2,4-trimethyl-1H-pyrrole-3-carboxmide] showed a half-maximal cytotoxic concentration (CC50) at 7 days in data set [1] greater than 30 µM. The EC50 in data set [2] lay in the range of 0.05 to 0.499 µM.
The corresponding values for `Cc1c(C(=O)Nc2ccc(F)c(F)c2)c2n(c1C(=O)C(=O)NC1(CO)CC1)CCCC2` [Example 463, N-(3,4-difluorophenyl)-3-(2-((1-(hydroxymethyl)cyclopropyl)amino)-2-oxoacetyl)-2-methyl-5,6,7,8-tetrahydroindolizine-1-carboxamide] are 5 to 30 µM and 0.05 to 0.499 µM.
`Cc1cc(NC(=O)c2c(C)c(C(=O)C(=O)NC3CCCCC3)n(C)c2C)ccc1F` [Example 262, 5-(2-(cyclohexylamino)-2-oxoacetyl)-N-(4-fluoro-3-methylphenyl)-1,2,4-trimethyl-1H-pyrrole-3-carboxamide] returned a CC50 at 7 days in data set [1] of 5 to 30 µM. In addition, in data set [2], the EC50 was less than 0.05 µM.
The corresponding values for `Cc1c(C(=O)Nc2ccnc(F)c2)c(C)n(C)c1C(=O)C(=O)NC(C)(C)C(F)(F)F` [Example 172, N-(2-fluoropyridin-4-yl)-1,2,4-trimethyl-5-(2-oxo-2-((1,1,1-trifluoro-2-methylpropan-2-yl)amino)acetyl)-1H-pyrrole-3-carboxamide] are greater than 30 µM and less than 0.05 µM.
For `Cc1cc(NC(=O)c2c(C)c(C(=O)C(=O)NCC3(N)CCCCC3)n(C)c2C)ccc1F` [Example 337, 5-(2-(((1-aminocyclohexyl)methyl)amino)-2-oxoacetyl)-N-(4-fluoro-3-methylphenyl)-1,2,4-trimethyl-1H-pyrrole-3-carboxamide], in data set [1], the half-maximal cytotoxic concentration (CC50) at 7 days was 5 to 30 µM. In addition, in data set [2], the EC50 was 0.5 to 1 µM.
The compound `Cc1cc(NC(=O)c2cc(C(=O)C(=O)NC3(C)CC(F)(F)C3)n3c2CCCC3)ccc1F` [Example 404, 3-(2-((3,3-difluoro-1-methylcyclobutyl)amino)-2-oxoacetyl)-N-(4-fluoro-3-methylphenyl)-5,6,7,8-tetrahydroindolizine-1-carboxamide] registered a CC50 at 7 days in data set [1] greater than 30 µM. Also, in data set [2], the EC50 is 0.05 to 0.499 µM.

A word on the CC50: it is the concentration giving 50% cytotoxicity. Lower therefore signals greater toxicity to the cells. The term EC50 denotes the concentration giving half of the maximal effect.

Values taken from patent US20190375708A1 (VenatoRx Pharmaceuticals, Inc., priority 2018, published 2019).
